The source of these data is US6110895A, “Method of promoting healing in skin grafts” (University of Southern California, priority 1997, dated 2000).

Series [1] relates to full thickness dermal wounds. The series is described as follows: Healing of full thickness dermal wounds with AIII (Example 3). It counts as in vivo, Sprague Dawley rats. The settings on record: 2×2 cm wounds; 3 μg and 10 μg dosages; FIG. 8. The text has this: Twelve week old male Sprague Dawley rats were obtained from Simonsen Laboratories (Gilroy, Calif.). On the date of surgery, rats received intramuscular ketamine/rompum anesthesia prior to preparation for surgery. The rats were shaved and scrubbed with betadine. Four 2×2 cm full thickness dermal wounds were created on the dorsal surface of the rat. Following excision of the skin, the size of the wound was outlined on a glass slide to establish the baseline wound size. The medicament was administered in 100 μl of a solution comprising 10% HYDRON, 1% polyethylene glycol (MW 400) and 60% ethanol. Test materials were administered in a randomized fashion. AIII was evaluated at 3 and 10 μg/wound. Controls were treated with vehicle only. After administration of the materials, the rats were bandaged and allowed to recover from anesthesia. At days 2, 5, 6, 8 and 10 the area of the skin wounds were measured under methoxyflurane anesthesia. The area of the wound was determined by: (1) tracing the wound shape onto graph paper (1×1 mm squares); (2) cutting out the shape; (3) weighing the paper and comparing the weight with a 2×2 cm paper cutout; and (4) counting the number of squares.

A further series relates to aminopeptidase. The settings on record: reported in literature; cited from earlier work.
For the next series, the system named is rat carotid artery. Particulars: cited from earlier work; for neointimal formation: similar model, Janiak et al. 1992, CGP 42112 infused perivascularly 14 days, losartan low doses.
Series [2] relates to full thickness dermal wounds. Put plainly: Wound closure by analogs of AII and AIII, Table 4 (Example 7). It counts as in vivo, Sprague Dawley rats. Particulars: percentage of vehicle-treated control wound, method of Example 6 (100 μg/wound, days 0-4). The text has this:
Female Sprague Dawley rats weighing 175-200 grams were obtained from Simonsen Laboratories (Gilroy, Calif.). On the day of surgery, rats received intramuscular ketamine/rompum anesthesia prior to preparation for surgery. The rats were shaved and scrubbed with betadine. Two 1.5×1.5 cm full thickness dermal wounds were created on the dorsal surface of each rat. Following excision of the skin, the size of the wound was outlined on a glass slide to establish the baseline wound size. The medicament was administered in 100 μl of 10% low viscosity carboxymethyl cellulose (Sigma). The p-NH2 -Phe6-AII test material was administered in a randomized fashion with all materials being tested at 100 μg/wound. Control wounds were treated with vehicle only. After administration of the materials, the rats were bandaged and allowed to recovery from anesthesia. The rats were treated with an additional 100 μg of peptide formulation on days 1-4 after surgery. On days 2, 4, 7 and 9 the area of the skin wounds were measured under methoxyflurane anesthesia. The area of the wound was determined by: (1) tracing the wound shape onto graph paper (1×1 mm squares); (2) cutting out the shape; (3) weighing the paper and comparing the weight with a 1.5×1.5 cm paper cutout; and (4) counting the number of squares on the graph paper. In addition, on days 2, 4 and 7 the area of granulation tissue was similarly determined.
Analogs of AII and AIII having the structures disclosed in Table 4 were prepared using an automated peptide synthesizer and methods familiar to those having ordinary skill in the art. Each of the analogs was tested for its ability to accelerate wound healing essentially according to the method of Example 6. Results of procedures used to determine the extent of wound closure at days 4 and 9 measured as a percentage of a vehicle-treated control wound are also presented in Table 4. Since all of the analogs were not tested during the same experimental procedure, AII was included as a positive control for each group of peptides tested. As designated below, peptide analogs are identified as analogs of AII or AIII having amino acid substitutions at positions indicated by superscripts. Thus, for example, Gly^4 -AIII is the designation for an AIII analog having a Gly residue substituted at position 4 of AIII. Results from procedures using analogs that were tested as a group are grouped together in the following Table.

For series [3] the following is noted: cited from earlier work.
For series [4] the following is noted: intracerebroventricular infusion at concentrations 1,000 times higher than that of AII; cited from earlier work.

On to `CC[C@H](C)[C@H](NC(=O)[C@H](Cc1ccc(O)cc1)NC(=O)[C@@H](NC(=O)[C@@H](N)CCCNC(=N)N)C(C)C)C(=O)N[C@@H](Cc1c[nH]cn1)C(=O)N1CCC[C@H]1C(=O)N[C@@H](Cc1ccccc1)C(=O)O` [AIII, Arg-Val-Tyr-Ile-His-Pro-Phe], for which, in series [1], the “wound closure relative to vehicle-treated control” value is given as “substantially accelerated”.

For the compound `CC[C@H](C)[C@H](NC(=O)[C@H](Cc1ccc(O)cc1)NC(=O)[C@@H](NC(=O)[C@H](CCCNC(=N)N)NC(=O)CNC)C(C)C)C(=O)N[C@@H](Cc1cnc[nH]1)C(=O)N1CCC[C@H]1C(=O)N[C@@H](Cc1ccccc1)C(=O)O` [Analog 4, Sar-Arg-Val-Tyr-Ile-His-Pro-Phe], the cleavage by aminopeptidase result in the series with aminopeptidase is listed as “resistant to cleavage by aminopeptidase”.

Consider `Cc1cc(Cn2cnc3c2C[C@@H](C(=O)O)N(C(=O)C(c2ccccc2)c2ccccc2)C3)ccc1N(C)C` [PD 123319], for which the “reduction of intimal hyperplasia” value in the series with rat carotid artery (Pratt et al. 1992) is 73%.

Consider `CCCCc1nc(Cl)c(CO)n1Cc1ccc(-c2ccccc2-c2nn[nH]n2)cc1` [losartan], for which, in the series with rat carotid artery (Pratt et al. 1992), the “decrease of intimal area” value is recorded as 95%. In the series on rat carotid artery (other studies, losartan at higher doses), the “neointimal formation, higher doses” value is “effective”. The neointimal formation entry in the series with rat carotid artery is reported as “ineffective”.

For “Asp-Arg-Val-Tyr(PO3)2 -Ile-His-Pro-Phe [[Tyr(PO3)2]^4 -AII]”, in series [2], the “extent of wound closure, % Control (Day 4)” value was determined as 81.3% and the “extent of wound closure, % Control (Day 9)” value was found to be 61.9%.

Regarding “Asp-Arg-Val-Tyr-Ile-His-Pro (DRVYIHP; printed: Asp-Arg-Val-Tyr-Ile-His-Pro) [AII(1-7)]”, in series [3] (Benter et al. 1993), the “amount needed for pressor response comparable to AII” value is reported as “about 10,000 times”. Moreover, the “dose effective on blood pressure relative to the dose of AII” value in series [3] (depending on model and route of administration) is 10,000-100,000 times.

As for CGP 42112, the neointimal formation entry in the series with rat carotid artery is “prevented neointimal formation”.

Take “Ile-His-Pro-Phe (IHPF; printed: Ile-His-Pro-Phe) [AII(5-8)]”: the “effect on blood pressure” value in series [4] was “minimal effect on blood pressure”.

Take homoSer^4 -AII [GSD41B]: in series [2], the “extent of wound closure, % Control (Day 4)” value was 77.6% and the “extent of wound closure, % Control (Day 9)” value came to 55.8%.
